Assay results from patent US20250101052A1, “COMPOUND FOR EGFR KINASE INHIBITOR, COMPOSITION, AND USE THEREOF” (INNOVATION INSTITUTE FOR ARTIFICIAL INTELLIGENCE IN …, priority 2021, published 2025).

Legend:
[1] = tested on: BaF3-EGFR^L858R/T790M/C797S cells; assay: BaF3 cell proliferation inhibition experiment (CCK-8); type: cell-based; settings: Ba/F3 EGFR-L858R, 72 hours
[2] = Detection of oral plasma exposure in rats; type: in vivo; settings: rat, SD rats, p.o. 10 mg/kg
Description: Detection of oral plasma exposure in rats: The compounds of the present invention have good oral in-vivo exposure in rats
After a single dose of 10 mg/kg oral administration of the compound to be tested in SD rats, blood samples were collected at different time points.
Standard curve and quality control sample preparation processing: The mixed reserve solution of the compound to be tested was taken and diluted with 50% methanol water into standard working solutions containing respective compounds with concentrations of 20, 40, 100, 200, 400, 1000, 2000, 4000, 10000, and 20000 ng/mL, as well as 60, 600, and 16000 ng/mL quality control working solutions. […] of a blank matrix was taken. […] of the standard curve working solutions and the quality control working solutions were added to prepare standard curves containing respective compounds with concentrations of 1.00, 2.00, 5.00, 10.00, 20.00, 50.00, 100.00, 200.00, 500.00, and 1000.00 ng/mL, as well as quality control samples with concentrations of 3.00, 30.00, and 800.00 ng/mL, respectively. 400 μL of acetonitrile (containing internal standard Verpmil of 2 ng/mL) was added. After vortex oscillation at 700 rcf for 10 minutes, centrifugation was conducted at 3300 rcf at 4° C. for 10 minutes. The supernatant was taken for LC-MS/MS analysis.
Unknown sample preparation processing: 50 μL of the sample to be tested was taken. 400 μL of acetonitrile (containing internal standard Verpmil of 2 ng/mL) was added. After vortex oscillation at 700 rcf for 10 minutes, centrifugation was conducted at 3300 rcf and 4° C. for 10 minutes. The supernatant was taken for LC-MS/MS analysis.

A431 cells = assay: A431 cell proliferation inhibition (SRB); type: cell-based; settings: Homo sapiens, A-431, wild-type EGFR, 72 hours

SMILES	IC50 [1] [nM]	AUC(0-t) [2] [ng·h/mL]	Cmax [2] [ng/mL]	Tmax [2] [h]	half-life [2] [h]	IC50 (A431 cells) [nM]	AUC(0-inf) ([2]; read-out: AUCINF—obs) [ng·h/mL]
CCc1cc(Nc2ncc(Cl)c(Nc3ccc(C)c(C)c3P(C)(C)=O)n2)c(OC)cc1N1CCC(N2C[C@H]3CC[C@@H](C2)N3C)CC1 [Compound 51, (6-((5-chloro-2-((5-ethyl-2-methoxy-4-(4-((1R,5S)-8-methyl-3,8-diazabicyclo[3.2.1]octan-3-yl)piperidin-1-yl)phenyl)amino)pyrimidin-4-yl)amino)-2,3-dimethylphenyl)dimethylphosphine oxide]	131	20700	1220	4	9.47	745	
CCc1cc(Nc2ncc(Cl)c(Nc3ccc(C)c(C)c3P(C)(C)=O)n2)c(OC)cc1N1CCC(N2CCN(C)CC2)CC1 [Comparative Compound A, reference compound]	47.3					207	
CCc1cc(Nc2ncc(Cl)c(Nc3ccc(C)c(C)c3P(C)(C)=O)n2)c(OC)cc1N1CC2(CCN(C)CC2)C1 [Compound 24, (6-((5-Chloro-2-((5-ethyl-2-methoxy-4-(7-methyl-2,7-diazaspiro[3.5]non-2-yl)phenyl)amino)pyrimidin-4-yl)amino)-2,3-dimethylphenyl)dimethylphosphine oxide]	43.3	7870	505	9	9.48	> 1000	
CCc1cc(Nc2ncc(Cl)c(Nc3ccc(C)c(C)c3P(C)(C)=O)n2)c(OC)cc1N1CCC2(CC1)CC(N(C)C)C2 [Compound 6, (6-((5-chloro-2-((4-(2-(dimethylamino)-7-azaspiro[3.5]nonan-7-yl)-5-ethyl-2-methoxyphenyl)amino)pyrimidin-4-yl)amino)-2,3-dimethylphenyl)dimethylphosphine oxide]	67.6	13800	866	8	9.72	> 1000	17700
